Laboratory results from patent US4318916A, “Antibiotic PS-5 and derivatives having β-lactamase inhibitory activity and production thereof” (Sanraku-Ocean Co., Ltd., priority 1977, dated 1982).
In brackets after ≈: the same amount, converted by molar mass. Read-outs that look alike come from different tables or passages of the source.

Legend:
Assay in all cases: MIC by broth dilution (Table 8)
Type in all cases: cell-based
[1] = tested on: Staphylococcus aureus Bx-1633; conditions: BX1633, 20 h, read-out: Minimum inhibitory concentration
Description: (§1) The MIC values of antibiotic PS-5 sodium salt were determined on various pathogenic microorganisms including resistant strains by the broth dilution method utilizing the BRAIN HEART INFUSION BROTH `Eiken` (EIKEN CHEMICAL CO., LTD.).
(§2) The antibiotic PS-5 sodium salt was dissolved in BRAIN HEART INFUSION BROTH `Eiken` (EIKEN CHEMICAL CO., LTD.) (pH 7.0) at concentration in the range of 5-50 μg/ml, from which appropriate dilution series were made in the same liquid medium. The microorganisms listed in Table 8 were cultivated for 18 hours in BRAIN HEART INFUSION BROTH `Eiken` at 28° C. and inoculated into the said dilution series of antibiotic PS-5 at a final inoculum size of 1×10^5 cells/ml. The cultures were allowed to stand at 35° C. for 20 hours, and then the growth of the microorganisms was read at each dilution of antibiotic PS-5. The minimum inhibitory concentration (MIC) represents the smallest concentration of the antibiotic PS-5 (sodium salt) where no propagation of the relevant microorganism was visually confirmed. As the controls, two known beta-lactam antibiotics, cephaloridine and cefoxitin were dissolved in brain heart infustion broth at pH 7.0 at concentrations ranging from 1 μg/ml to 100 μ g/ml and then diluted to make several dilution series in the above mentioned liquid medium. These samples were treated as described above for the MIC determinations.

[2] = tested on: Diplococcus pneumoniae Type III; conditions: Streptococcus pneumoniae, 20 h, read-out: Minimum inhibitory concentration
Description: as §1, §2

[3] = tested on: Staphylococcus aureus EDA 209 P; conditions: EDA209P, 20 h, read-out: Minimum inhibitory concentration
Description: as §1, §2

[4] = tested on: Streptococcus pyogenes NY-5; conditions: NY5, 20 h, read-out: Minimum inhibitory concentration
Description: as §1, §2

[5] = tested on: Staphylococcus aureus Smith; conditions: 20 h, read-out: Minimum inhibitory concentration
Description: as §1, §2

[6] = tested on: Bacillus subtilis ATCC 6633; conditions: ATCC6633, 20 h, read-out: Minimum inhibitory concentration
Description: as §1, §2

Serratia marcescens S-18 = conditions: S18, 20 h, betalactamase producer, read-out: Minimum inhibitory concentration
Description: as §1
as §2, with “determinations. In addition to the MIC values of antibiotic PS-5, those of cephaloridine and cefoxitin are included for reference.” for “determinations.”

Proteus rettgeri P-7 = conditions: Providencia rettgeri, P7, 20 h, resistant to gentamicin and tobramycin, read-out: Minimum inhibitory concentration
Description: as §1
as §2, with “determinations. In addition to the MIC values of antibiotic PS-5, those of cephaloridine and cefoxitin are included for reference.” for “determinations.”

[7] = tested on: Enterobacter aerogenes E-19; conditions: Klebsiella aerogenes, E19, 20 h, betalactamase producer, read-out: Minimum inhibitory concentration
Description: as §1
as §2, with “determinations. In addition to the MIC values of antibiotic PS-5, those of cephaloridine and cefoxitin are included for reference.” for “determinations.”

[8] = tested on: Klebsiella pneumoniae K-2; conditions: K2, 20 h, betalactamase producer, read-out: Minimum inhibitory concentration
Description: as §1
as §2, with “determinations. In addition to the MIC values of antibiotic PS-5, those of cephaloridine and cefoxitin are included for reference.” for “determinations.”

Enterobacter sp. E-8 = conditions: SP.E8, 20 h, read-out: Minimum inhibitory concentration
Description: as §1
as §2, with “determinations. In addition to the MIC values of antibiotic PS-5, those of cephaloridine and cefoxitin are included for reference.” for “determinations.”

[9] = tested on: Enterobacter cloacae E-16; conditions: E16, 20 h, betalactamase producer, read-out: Minimum inhibitory concentration
Description: as §1
as §2, with “determinations. In addition to the MIC values of antibiotic PS-5, those of cephaloridine and cefoxitin are included for reference.” for “determinations.”

Proteus sp. P-22 = conditions: 20 h, read-out: Minimum inhibitory concentration
Description: as §1
as §2, with “determinations. In addition to the MIC values of antibiotic PS-5, those of cephaloridine and cefoxitin are included for reference.” for “determinations.”

[10] = tested on: Alcaligenes faecalis B-326; conditions: B326, 20 h, read-out: Minimum inhibitory concentration
Description: as §1
as §2, with “determinations. In addition to the MIC values of antibiotic PS-5, those of cephaloridine and cefoxitin are included for reference.” for “determinations.”

Citrobacter freundii E-9 = conditions: E9, 20 h, read-out: Minimum inhibitory concentration
Description: as §1
as §2, with “determinations. In addition to the MIC values of antibiotic PS-5, those of cephaloridine and cefoxitin are included for reference.” for “determinations.”

Proteus mirabilis P-6 = conditions: P6, 20 h, resistant to kanamycin, gentamicin and tobramycin, read-out: Minimum inhibitory concentration
Description: as §1
as §2, with “determinations. In addition to the MIC values of antibiotic PS-5, those of cephaloridine and cefoxitin are included for reference.” for “determinations.”

Proteus vulgaris P-5 = conditions: P5, 20 h, betalactamase producer, read-out: Minimum inhibitory concentration
Description: as §1
as §2, with “determinations. In addition to the MIC values of antibiotic PS-5, those of cephaloridine and cefoxitin are included for reference.” for “determinations.”

Escherichia coli K 12 = conditions: K12, 20 h, read-out: Minimum inhibitory concentration
Description: as §1
as §2, with “determinations. In addition to the MIC values of antibiotic PS-5, those of cephaloridine and cefoxitin are included for reference.” for “determinations.”

[11] = tested on: Staphylococcus aureus Russell; conditions: 20 h, read-out: Minimum inhibitory concentration
Description: as §1
as §2, with “determinations. In addition to the MIC values of antibiotic PS-5, those of cephaloridine and cefoxitin are included for reference.” for “determinations.”

Providencia sp. P-8 = conditions: SP.P8, 20 h, resistant to kanamycin, gentamicin and tobramycin, read-out: Minimum inhibitory concentration
Description: as §1
as §2, with “determinations. In addition to the MIC values of antibiotic PS-5, those of cephaloridine and cefoxitin are included for reference.” for “determinations.”

## CCC1C(=O)N2C(C(=O)O)=C(SCCNC(C)=O)CC12 (single isomer, unassigned) [Antibiotic PS-5]
[1]; Staphylococcus aureus Bx-1633, PS-5 as sodium salt
  MIC: 0.16 µg/mL
[2]; Diplococcus pneumoniae Type III, 10% horse blood supplemented into the medium
  MIC: 0.02 µg/mL (≈ 0.067 µM)
[3]; Staphylococcus aureus EDA 209 P, PS-5 as sodium salt
  MIC: 0.16 µg/mL
[4]; Streptococcus pyogenes NY-5, 10% horse blood supplemented into the medium
  MIC: 0.08 µg/mL (≈ 0.268 µM)
[5]; Staphylococcus aureus Smith, PS-5 as sodium salt
  MIC: 0.31 µg/mL
[6]; Bacillus subtilis ATCC 6633
  MIC: 0.16 µg/mL (≈ 0.536 µM)
Serratia marcescens S-18
  MIC: 6.25 µg/mL (≈ 20.9 µM)
Proteus rettgeri P-7
  MIC: 3.13 µg/mL (≈ 10.5 µM)
[7]
  MIC: 6.25 µg/mL (≈ 20.9 µM)
[8]
  MIC: 3.13 µg/mL (≈ 10.5 µM)
Enterobacter sp. E-8; Enterobacter sp. E-8, betalactamase producer
  MIC: 3.13 µg/mL (≈ 10.5 µM)
[9]
  MIC: 12.5 µg/mL (≈ 41.9 µM)
Proteus sp. P-22; Proteus sp. P-22
  MIC: 6.25 µg/mL (≈ 20.9 µM)
[10]; Alcaligenes faecalis B-326
  MIC: 0.78 µg/mL (≈ 2.61 µM)
Citrobacter freundii E-9; Citrobacter freundii E-9, betalactamase producer
  MIC: 3.13 µg/mL (≈ 10.5 µM)
Proteus mirabilis P-6
  MIC: 6.25 µg/mL (≈ 20.9 µM)
Proteus vulgaris P-5
  MIC: 12.5 µg/mL (≈ 41.9 µM)
Escherichia coli K 12; Escherichia coli K 12
  MIC: 2.5 µg/mL (≈ 8.38 µM)
[11]; Staphylococcus aureus Russell, PS-5 as sodium salt
  MIC: 0.31 µg/mL
Providencia sp. P-8
  MIC: 6.25 µg/mL (≈ 20.9 µM)

## O=C(Cc1cccs1)N[C@@H]1C(=O)N2C(C(=O)[O-])=C(C[n+]3ccccc3)CS[C@H]12 [Cephaloridine, cephaloridine]
[1]; Staphylococcus aureus
  MIC: 0.031 µg/mL (≈ 0.0746 µM)
[2]
  MIC: 0.031 µg/mL (≈ 0.0746 µM)
[3]; Staphylococcus aureus
  MIC: 0.031 µg/mL (≈ 0.0746 µM)
[4]; Streptococcus pyogenes
  MIC: 0.008 µg/mL (≈ 0.0193 µM)
[5]; Staphylococcus aureus
  MIC: 0.031 µg/mL (≈ 0.0746 µM)
[6]; Bacillus subtilis
  MIC: 0.031 µg/mL (≈ 0.0746 µM)
Serratia marcescens S-18
  MIC: > 100 µg/mL
Proteus rettgeri P-7
  MIC: 100 µg/mL (≈ 241 µM)
[7]
  MIC: > 100 µg/mL
[8]
  MIC: 6.25 µg/mL (≈ 15 µM)
Enterobacter sp. E-8; Enterobacter
  MIC: 3.13 µg/mL (≈ 7.53 µM)
[9]
  MIC: > 100 µg/mL
Proteus sp. P-22
  MIC: > 100 µg/mL
[10]; Alcaligenes faecalis
  MIC: 6.25 µg/mL (≈ 15 µM)
Citrobacter freundii E-9; Citrobacter freundii
  MIC: > 100 µg/mL
Proteus mirabilis P-6
  MIC: 12.5 µg/mL (≈ 30.1 µM)
Proteus vulgaris P-5
  MIC: > 100 µg/mL
Escherichia coli K 12; Escherichia coli
  MIC: 2.5 µg/mL (≈ 6.02 µM)
[11]; Staphylococcus aureus
  MIC: 0.125 µg/mL (≈ 0.301 µM)
Providencia sp. P-8
  MIC: > 100 µg/mL
